Our source for the IC50 values is US9138418B2, “Therapeutic compositions and methods for delivery of active agents cleavably linked to nanoparticles” (priority 2009, dated 2015).

This experiment concerns MCF-7 breast cancer cells. The experiment can be described thus: MTT cell growth inhibition assay in MCF-7 breast cancer cells. It is filed as cell-based. The conditions noted are these: 72 hours post treatment, concentrations with respect to paclitaxel content. As to the method: The antiproliferative capabilities of PTX-AuNPs from Example 1 were first investigated in vitro. To this end, cellular assays were performed to compare the ability of the PTX-AuNPs to inhibit cell growth relative to the parent drug. Briefly, MCF-7 breast cancer cells were treated over a range of concentrations (based on equivalent PTX content) for all samples and relative cell survival was measured 72 hours post treatment following the MTT protocol. Additionally, the paclitaxel pyruvate compound was also analyzed, as it represented the agent released from the gold surface upon degradation of the hydrazone linker. MCF-7 cells were plated in 6 well plates and allowed to proliferate until approximately 80-90% confluent. Once optimal confluency was reached, increasing concentrations of PTX-AuNPs were added to each well in order to ensure sufficient uptake for imaging (up to 100 μg/mL). Following 12 hours of incubation with PTX-AuNPs, the cells were fixed with a solution of gluteraldehyde and imaged by transmission electron microscopy (TEM). MCF-7 breast cancer cells were plated in 96-well plates at a concentration of 4,000 cells/well (100 μL/well) and allowed to attach for 24 hours. […] Upon agitating the plates for 2 minutes, absorbance values were recorded using a plate reader (Gene Mate, BioTek) equipped with a 570 nm filter.

In turn, `CC(=O)O[C@H]1C(=O)[C@@]2(C)[C@H]([C@H](OC(=O)c3ccccc3)[C@]3(O)C[C@H](OC(=O)[C@H](O)[C@@H](NC(=O)c4ccccc4)c4ccccc4)C(C)=C1C3(C)C)[C@]1(OC(C)=O)CO[C@@H]1C[C@@H]2O` [paclitaxel] displayed an IC50 (Homo sapiens, MCF7, MCF-7 cells) of roughly 4 nM.

For the compound `CC(=O)OC1C(=O)C2(C)C(O)CC3OCC3(OC(C)=O)C2C(OC(=O)c2ccccc2)C2(O)CC(OC(=O)C(OC(=O)C(C)=O)C(NC(=O)c3ccccc3)c3ccccc3)C(C)=C1C2(C)C` (centres unmarked) [paclitaxel pyruvate, Paclitaxel 2′ Pyruvate], for the setting “MCF-7 cells”, the midpoint of inhibition, the IC50, lay at 9 nM.

For orientation: IC50 means the concentration needed to halve the response being measured. A lower IC50 goes with higher potency.
